≈ marks a conversion by molar mass, not a printed value.
Assays:
[1] = system: C. glabrata; test: In vitro antifungal susceptibility CLSI M27-A2 (MIC, MFC); assay type: cell-based; details: C. glabrata (10)
[2] = system: C. tropicalis; test: as above; assay type: cell-based; details: C. tropicalis (10)
[3] = system: C. kefyr; test: as above; assay type: cell-based; details: C. kefyr (10)
[4] = system: C. krusei; test: as above; assay type: cell-based; details: C. krusei (10)
[5] = system: C. rugosa; test: as above; assay type: cell-based; details: C. rugosa (2)
[6] = system: E. jeanselmei; test: In vitro antifungal susceptibility CLSI M38-A (MIC); assay type: cell-based, Exophilia jeanselmei; details: 3 isolates
Description: In addition, MFC ([…]) was done for each species. The geometric mean (GM) was calculated for each isolate using all three results. All testing was performed in triplicate to verify the reproducibility of the data.
Several of the more common molds were also tested and evaluated including five strains of Alternaria, Cladosporium, Scopulariopsis, Acremonium, and Paecilomyces. Also evaluated were some of the more uncommon fungi such as Exophilia jeanselmei (3), Emmonsia parvum (Chrysporium parvum) (2) and Epioccum spp. (2). Conventional ATCC strains of different Candida and Aspergillus species were used as controls.

[7] = system: Histoplasma capsulatum; assay type: cell-based; details: 4 of the H isolates
[8] = system: 14 clinical isolates: Coccidioides, Blastomyces, Histoplasma capsulatum, Paracoccidioides; assay type: cell-based; details: of 14 isolates
[9] = background statement; cited from earlier work
[10] = 28-day toxicology in rats (clinical chemistry, NOAEL)
[11] = rat sera, amphotericin B 0.5 mg, intravenously three days a week
[12] = rat sera, amphotericin B 1.0 mg, intravenously three days a week
[13] = rat sera, amphotericin B 1.5 mg, intravenously three days a week

SMILES: C[C@@H]1[C@H](O)[C@@H](C)/C=C/C=C/C=C/C=C/C=C/C=C/C=C/[C@H](O[C@@H]2O[C@H](C)[C@@H](O)[C@H](N)[C@@H]2O)C[C@@H]2O[C@](O)(C[C@@H](O)C[C@@H](O)[C@H](O)CC[C@@H](O)C[C@@H](O)CC(=O)O[C@H]1C)C[C@H](O)[C@H]2C(=O)O [Amphotericin B, amphotericin B]
- GM (geometric mean MIC) [1]: 0.9 µg/mL
- MFC [1]: 1 µg/mL (≈ 1.08 µM)
- MIC50 [1]: 1 µg/mL (≈ 1.08 µM)
- MIC90 [1]: 1 µg/mL (≈ 1.08 µM)
- MIC Range [1]: 0.5 to 1.0 µg/mL
- MIC50 ([1]; listed as amphotericin B): 1.0 µg/mL (≈ 1.08 µM)
- GM (geometric mean MIC) [2]: 0.95 µg/mL
- MFC [2]: 2 µg/mL (≈ 2.16 µM)
- MIC50 [2]: 1 µg/mL (≈ 1.08 µM)
- MIC90 [2]: 1 µg/mL (≈ 1.08 µM)
- MIC Range [2]: 0.5 to 1.0 µg/mL
- GM (geometric mean MIC) [3]: 1.25 µg/mL
- MFC [3]: 1 µg/mL (≈ 1.08 µM)
- MIC50 [3]: 1 µg/mL (≈ 1.08 µM)
- MIC90 [3]: 2 µg/mL (≈ 2.16 µM)
- MIC Range [3]: 0.12 to 2.0 µg/mL
- GM (geometric mean MIC) [4]: 1.29 µg/mL
- MFC [4]: 2 µg/mL (≈ 2.16 µM)
- MIC50 [4]: 1 µg/mL (≈ 1.08 µM)
- MIC90 [4]: 2 µg/mL (≈ 2.16 µM)
- MIC Range [4]: 0.5 to 2.0 µg/mL
- MIC50 ([4]; listed as amphotericin B): 1.0 µg/mL (≈ 1.08 µM)
- GM (geometric mean MIC) [5]: 0.83 µg/mL
- MFC [5]: 2 µg/mL (≈ 2.16 µM)
- MIC Range [5]: 0.5 to 1.0 µg/mL
- GM [6]: 4.67 µg/mL
- MIC50 [6]: 4 µg/mL (≈ 4.33 µM)
- MIC Range [6]: 2 to 8 µg/mL
- MFC [7]: 0.5 µg/mL (≈ 0.541 µM)
- MIC [7]: 0.5 µg/mL (≈ 0.541 µM)
- cases in which MFCs equaled MICs [8]: 11/14
- Water solubility [9]: insoluble in water
- ALB (Albumin) [10, 11]: 3.2
- ALK (Alkaline Phosphatase) [10, 11]: 74
- ALT (Alanine Aminotransferase) [10, 11]: 37
- BUN (Blood Urea Nitrogen) [10, 11]: 15
- Creat (Creatinine) [10, 11]: 0.6
- GLOB (Globulin) [10, 11]: 2.6
- Na (Sodium) [10, 11]: 140
- ALB (Albumin) [10, 12]: 3.2
- ALK (Alkaline Phosphatase) [10, 12]: 61
- ALT (Alanine Aminotransferase) [10, 12]: 37
- BUN (Blood Urea Nitrogen) [10, 12]: 16
- Creat (Creatinine) [10, 12]: 0.6
- GLOB (Globulin) [10, 12]: 2.7
- Na (Sodium) [10, 12]: 140
- TP (Total Protein) [10, 12]: 6.0
- ALB (Albumin) [10, 13]: 3.4
- ALK (Alkaline Phosphatase) [10, 13]: 69
- ALT (Alanine Aminotransferase) [10, 13]: 36
- BUN (Blood Urea Nitrogen) [10, 13]: 17
- Creat (Creatinine) [10, 13]: 0.6
- GLOB (Globulin) [10, 13]: 2.4
- Na (Sodium) [10, 13]: 132
- toxicity ([10]; rats, intravenously 1.5 mg/kg three times a week over 28 days): No toxicity was observed
